Source: patent US6716866B2, “Aryl-benzimidazole compounds having antiinfective activity” (GeneSoft Pharmaceuticals, Inc., priority 2001, dated 2004)

Columns and labels:
Type in all cases: cell-based
B. cereus ATCC 11778 = assay: NCCLS broth microdilution MIC, B. cereus ATCC 11778; conditions: organism A = B. cereus ATCC 11778
Method: (§1) Compounds according to this invention were screened for their in vitro activities against selected species of bacteria and fungi. The minimal inhibition concentration (MIC) of these compounds was determined using the National Committee for Clinical Laboratory Standards (NCCLS) broth microdilution assay in microtiter plates, as set forth in: (1) the guidelines of the National Committee for Clinical Laboratory Standards (NCCLS) Document M7-A4 (NCCLS, 1997); (2) the guidelines of the National Committee for Clinical Laboratory Standards (NCCLS) Document M11-A4 (NCCLS, 1997); and (3) the guidelines and reference method of the National Committee for Clinical Laboratory Standards (NCCLS) Document M27-T (NCCLS, 1995). For antifungal essays, the method recommended in Murray, PR., 1995 Manual of Clinical Microbiology (ASM Press, Washington, D.C.), was employed.

C. albicans ATCC 38247 = assay: NCCLS broth microdilution MIC (antifungal), C. albicans ATCC 38247; conditions: organism B = C. albicans ATCC 38247
Method: as §1

E. coli ATCC 25922 = assay: NCCLS broth microdilution MIC, E. coli ATCC 25922; conditions: organism C = E. coli ATCC 25922
Method: as §1

E. faecalis ATCC 29212 = assay: NCCLS broth microdilution MIC, E. faecalis ATCC 29212; conditions: organism D = E. faecalis ATCC 29212
Method: as §1

S. aureus ATCC 13709 = assay: NCCLS broth microdilution MIC, S. aureus ATCC 13709; conditions: organism E = S. aureus ATCC 13709
Method: as §1

S. pneumoniae ATCC 49619 = assay: NCCLS broth microdilution MIC, S. pneumoniae ATCC 49619; conditions: organism F = S. pneumoniae ATCC 49619
Method: as §1

E. faecium ATCC 51559 = assay: MIC against drug-resistant bacteria, E. faecium ATCC 51559; conditions: organism A = E. faecium ATCC 51559, vancomycin resistant strain (VRE)
Method: as §1
(§2) Further, compounds (I) are effective against drug-resistant bacteria, as evidenced by the data in Table 2 below:
(§3) ATCC 27660 and ATCC 33591 are methycillin resistant strains of S. aureus (MRSA's). ATCC 51559 is a vancomycin resistant strain of E. faecium (VRE). ATCC 12228 is a methycillin resistant strain of S. epidermis (MRSE). ATCC 51422 is a penicillin resistant strain of S. pneumoniae.

S. aureus ATCC 27660 = assay: MIC against drug-resistant bacteria, S. aureus ATCC 27660; conditions: organism B = S. aureus ATCC 27660, methycillin resistant strain (MRSA)
Method: as §1, §2, §3

S. aureus ATCC 33591 = assay: MIC against drug-resistant bacteria, S. aureus ATCC 33591; conditions: organism C = S. aureus ATCC 33591, methycillin resistant strain (MRSA)
Method: as §1, §2, §3

S. epidermis ATCC 12228 = assay: MIC against drug-resistant bacteria, S. epidermis ATCC 12228; conditions: organism D = S. epidermis ATCC 12228, methycillin resistant strain (MRSE)
Method: as §1, §2, §3

S. pneumoniae ATCC 51422 = assay: MIC against drug-resistant bacteria, S. pneumoniae ATCC 51422; conditions: organism E = S. pneumoniae ATCC 51422, penicillin resistant strain
Method: as §1, §2, §3

Compound: Cn1cc(NC(=O)c2ccc3nc(-c4cc(NC(=O)c5sccc5Cl)cn4C)[nH]c3c2)cc1C(=O)NCCN1CCOCC1 [Compound I-2]
- Minimum Inhibitory Concentration (MIC) (B. cereus ATCC 11778): +++ (MIC ≦4)
- Minimum Inhibitory Concentration (MIC) (C. albicans ATCC 38247): >32 µg/mL
- Minimum Inhibitory Concentration (MIC) (E. coli ATCC 25922): >32 µg/mL
- Minimum Inhibitory Concentration (MIC) (E. faecalis ATCC 29212): +++ (MIC ≦4)
- Minimum Inhibitory Concentration (MIC) (S. aureus ATCC 13709): +++ (MIC ≦4)
- Minimum Inhibitory Concentration (MIC) (S. pneumoniae ATCC 49619): +++ (MIC ≦4)
- Minimum Inhibitoty Concentration (MIC) (E. faecium ATCC 51559): +++ (MIC ≦4)
- Minimum Inhibitoty Concentration (MIC) (S. aureus ATCC 27660): +++ (MIC ≦4)
- Minimum Inhibitoty Concentration (MIC) (S. aureus ATCC 33591): +++ (MIC ≦4)
- Minimum Inhibitoty Concentration (MIC) (S. epidermis ATCC 12228): +++ (MIC ≦4)
- Minimum Inhibitoty Concentration (MIC) (S. pneumoniae ATCC 51422): +++ (MIC ≦4)
